Measurements from ChEMBL document CHEMBL4507291 (2021).

Assays:
[1] = molecular target: Microtubule-associated serine/threonine-protein kinase 1 (Homo sapiens) (UniProt Q9Y2H9)
[2] = molecular target: Mitogen-activated protein kinase 1 (Homo sapiens) (UniProt P28482)
[3] = system: Receptor-type tyrosine-protein kinase FLT3 (Homo sapiens), P36888 [UNDEFINED MUTATION]
[4] = system: Serine/threonine-protein kinase B-raf (Homo sapiens), P15056 [V600E]
[5] = molecular target: Ribosomal protein S6 kinase beta-1 (Homo sapiens) (UniProt P23443)
[6] = molecular target: Serine/threonine-protein kinase 38-like (Homo sapiens) (UniProt Q9Y2H1)
[7] = molecular target: Phosphatidylinositol 3-kinase catalytic subunit type 3 (Homo sapiens) (UniProt Q8NEB9)
[8] = system: Tyrosine-protein kinase ABL1 (Homo sapiens), P00519 [H396P]
[9] = molecular target: T1, Serine/threonine-protein kinase Nek1 (Homo sapiens) (UniProt Q96PY6)
T1 sequence (whole entry): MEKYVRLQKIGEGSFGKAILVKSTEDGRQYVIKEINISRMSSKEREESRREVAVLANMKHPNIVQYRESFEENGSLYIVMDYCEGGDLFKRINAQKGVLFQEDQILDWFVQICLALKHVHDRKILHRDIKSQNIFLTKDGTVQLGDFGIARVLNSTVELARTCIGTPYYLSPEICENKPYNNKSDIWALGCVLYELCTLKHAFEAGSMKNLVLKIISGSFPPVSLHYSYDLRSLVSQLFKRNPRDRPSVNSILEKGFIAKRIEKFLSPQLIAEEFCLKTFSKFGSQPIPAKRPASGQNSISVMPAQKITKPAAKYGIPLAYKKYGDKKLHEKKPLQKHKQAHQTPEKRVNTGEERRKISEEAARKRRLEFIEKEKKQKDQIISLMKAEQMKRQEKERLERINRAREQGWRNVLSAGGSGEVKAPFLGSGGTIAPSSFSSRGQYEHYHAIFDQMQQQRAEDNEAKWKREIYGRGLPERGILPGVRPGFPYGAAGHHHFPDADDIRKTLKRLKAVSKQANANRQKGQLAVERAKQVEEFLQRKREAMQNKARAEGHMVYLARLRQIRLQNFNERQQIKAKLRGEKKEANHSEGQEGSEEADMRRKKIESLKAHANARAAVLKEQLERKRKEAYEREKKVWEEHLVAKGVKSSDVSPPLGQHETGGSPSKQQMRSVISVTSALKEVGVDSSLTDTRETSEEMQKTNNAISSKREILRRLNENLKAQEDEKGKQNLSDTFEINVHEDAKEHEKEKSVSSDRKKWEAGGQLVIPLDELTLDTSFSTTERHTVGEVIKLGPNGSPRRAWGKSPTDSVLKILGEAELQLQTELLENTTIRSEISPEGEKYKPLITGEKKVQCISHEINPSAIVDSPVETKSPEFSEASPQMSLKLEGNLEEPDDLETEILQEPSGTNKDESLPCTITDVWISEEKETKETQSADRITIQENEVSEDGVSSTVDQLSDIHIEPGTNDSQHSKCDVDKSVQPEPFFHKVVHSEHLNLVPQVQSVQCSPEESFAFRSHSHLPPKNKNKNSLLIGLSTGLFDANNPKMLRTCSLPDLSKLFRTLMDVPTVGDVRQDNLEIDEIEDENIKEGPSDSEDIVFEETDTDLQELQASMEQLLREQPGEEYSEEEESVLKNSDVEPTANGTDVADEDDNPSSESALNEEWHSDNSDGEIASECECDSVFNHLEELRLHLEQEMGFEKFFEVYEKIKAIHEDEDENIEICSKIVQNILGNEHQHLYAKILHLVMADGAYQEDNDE

[10] = molecular target: 5-hydroxytryptamine receptor 5A (Homo sapiens) (UniProt P47898); conditions: Compound concentration 10.0 uM
[11] = molecular target: Serine/threonine-protein kinase PAK 1 (Homo sapiens) (UniProt Q13153)
[12] = molecular target: Serine/threonine-protein kinase SIK3 (Homo sapiens) (UniProt Q9Y2K2)
[13] = system: Epidermal growth factor receptor (Homo sapiens), P00533 [UNDEFINED MUTATION]
[14] = molecular target: Proto-oncogene tyrosine-protein kinase ROS (Homo sapiens) (UniProt P08922)
[15] = molecular target: LIM domain kinase 2 (Homo sapiens) (UniProt P53671)
[16] = molecular target: Serine/threonine-protein kinase TNNI3K (Homo sapiens) (UniProt Q59H18)
[17] = molecular target: T2, 5-hydroxytryptamine receptor 1A (Homo sapiens) (UniProt P08908); conditions: Compound concentration 10.0 uM
T2 sequence (whole entry): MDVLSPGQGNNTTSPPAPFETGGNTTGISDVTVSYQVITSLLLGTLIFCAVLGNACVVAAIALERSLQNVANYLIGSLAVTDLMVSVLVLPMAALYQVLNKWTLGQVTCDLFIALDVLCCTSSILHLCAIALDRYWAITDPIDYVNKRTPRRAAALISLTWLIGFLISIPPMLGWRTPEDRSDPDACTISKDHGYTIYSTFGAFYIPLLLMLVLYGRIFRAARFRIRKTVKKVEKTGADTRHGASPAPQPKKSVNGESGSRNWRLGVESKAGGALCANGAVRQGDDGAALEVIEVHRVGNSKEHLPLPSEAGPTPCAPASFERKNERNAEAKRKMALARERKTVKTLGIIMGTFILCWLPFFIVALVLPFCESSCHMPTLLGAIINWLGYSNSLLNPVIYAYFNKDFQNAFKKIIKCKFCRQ

[18] = molecular target: Mitogen-activated protein kinase 11 (Homo sapiens) (UniProt Q15759)
[19] = Compound concentration 1000.0 nM
[20] = Compound concentration 100.0 nM

Proto-oncogene tyrosine-protein kinase ROS (Homo sapiens), sequence (P08922 whole entry, the tested form may be a part): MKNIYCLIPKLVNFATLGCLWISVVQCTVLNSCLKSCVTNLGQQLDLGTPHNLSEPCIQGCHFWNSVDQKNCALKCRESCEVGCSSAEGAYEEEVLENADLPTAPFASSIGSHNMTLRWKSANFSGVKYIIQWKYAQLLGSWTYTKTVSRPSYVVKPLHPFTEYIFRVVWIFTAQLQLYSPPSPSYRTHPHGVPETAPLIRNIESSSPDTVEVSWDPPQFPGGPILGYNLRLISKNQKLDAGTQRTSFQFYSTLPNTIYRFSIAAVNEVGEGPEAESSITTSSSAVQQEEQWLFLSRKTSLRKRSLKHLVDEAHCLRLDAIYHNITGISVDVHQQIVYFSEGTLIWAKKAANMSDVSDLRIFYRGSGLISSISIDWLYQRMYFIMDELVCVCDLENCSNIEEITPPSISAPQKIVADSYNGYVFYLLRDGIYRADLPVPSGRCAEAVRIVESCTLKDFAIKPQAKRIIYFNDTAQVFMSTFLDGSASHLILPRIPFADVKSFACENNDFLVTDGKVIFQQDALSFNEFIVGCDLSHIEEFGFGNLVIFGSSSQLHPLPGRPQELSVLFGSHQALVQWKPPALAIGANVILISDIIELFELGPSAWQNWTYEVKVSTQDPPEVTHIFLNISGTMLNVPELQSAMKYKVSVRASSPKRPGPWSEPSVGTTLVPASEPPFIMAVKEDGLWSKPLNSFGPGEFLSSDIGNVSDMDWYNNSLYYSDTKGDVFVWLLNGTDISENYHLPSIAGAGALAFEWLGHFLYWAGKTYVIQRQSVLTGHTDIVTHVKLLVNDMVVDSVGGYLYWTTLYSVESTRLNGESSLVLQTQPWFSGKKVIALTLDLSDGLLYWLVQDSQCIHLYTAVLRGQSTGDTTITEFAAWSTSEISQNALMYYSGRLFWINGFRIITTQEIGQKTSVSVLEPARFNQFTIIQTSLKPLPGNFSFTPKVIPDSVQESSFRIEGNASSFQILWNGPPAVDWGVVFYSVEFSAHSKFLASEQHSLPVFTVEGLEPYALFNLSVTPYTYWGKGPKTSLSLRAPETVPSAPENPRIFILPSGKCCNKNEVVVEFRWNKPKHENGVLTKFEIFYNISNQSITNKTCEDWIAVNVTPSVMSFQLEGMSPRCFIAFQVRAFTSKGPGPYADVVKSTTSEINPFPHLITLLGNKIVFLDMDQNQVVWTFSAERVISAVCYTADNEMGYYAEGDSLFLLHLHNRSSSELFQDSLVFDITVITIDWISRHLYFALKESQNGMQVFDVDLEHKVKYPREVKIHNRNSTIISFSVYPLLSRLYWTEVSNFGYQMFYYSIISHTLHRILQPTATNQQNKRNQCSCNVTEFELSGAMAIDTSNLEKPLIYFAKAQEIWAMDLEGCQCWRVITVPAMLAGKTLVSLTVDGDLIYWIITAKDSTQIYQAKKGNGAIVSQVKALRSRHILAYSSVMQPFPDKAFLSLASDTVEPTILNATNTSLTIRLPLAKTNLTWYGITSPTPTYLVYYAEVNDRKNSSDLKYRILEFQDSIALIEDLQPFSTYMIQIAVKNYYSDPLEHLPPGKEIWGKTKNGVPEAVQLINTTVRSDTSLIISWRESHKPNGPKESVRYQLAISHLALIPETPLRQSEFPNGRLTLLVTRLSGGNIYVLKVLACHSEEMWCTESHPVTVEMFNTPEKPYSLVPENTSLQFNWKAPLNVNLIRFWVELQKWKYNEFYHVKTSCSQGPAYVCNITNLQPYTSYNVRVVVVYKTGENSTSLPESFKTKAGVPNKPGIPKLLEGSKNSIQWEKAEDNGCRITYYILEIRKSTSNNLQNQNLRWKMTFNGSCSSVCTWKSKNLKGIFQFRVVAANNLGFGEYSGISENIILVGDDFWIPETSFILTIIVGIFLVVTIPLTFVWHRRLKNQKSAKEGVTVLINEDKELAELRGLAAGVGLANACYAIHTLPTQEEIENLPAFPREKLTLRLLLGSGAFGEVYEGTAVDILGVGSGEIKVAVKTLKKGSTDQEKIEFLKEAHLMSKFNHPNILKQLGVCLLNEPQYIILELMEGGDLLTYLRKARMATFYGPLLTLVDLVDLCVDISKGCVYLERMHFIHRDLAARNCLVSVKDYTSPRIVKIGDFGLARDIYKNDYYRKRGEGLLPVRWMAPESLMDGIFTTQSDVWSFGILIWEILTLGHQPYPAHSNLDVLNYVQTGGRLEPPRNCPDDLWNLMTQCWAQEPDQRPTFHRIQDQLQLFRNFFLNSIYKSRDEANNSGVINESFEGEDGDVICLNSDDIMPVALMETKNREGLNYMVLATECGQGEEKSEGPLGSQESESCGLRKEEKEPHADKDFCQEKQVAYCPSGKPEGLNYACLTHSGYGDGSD
LIM domain kinase 2 (Homo sapiens), sequence (P53671 whole entry, looked up, the tested form may be a part): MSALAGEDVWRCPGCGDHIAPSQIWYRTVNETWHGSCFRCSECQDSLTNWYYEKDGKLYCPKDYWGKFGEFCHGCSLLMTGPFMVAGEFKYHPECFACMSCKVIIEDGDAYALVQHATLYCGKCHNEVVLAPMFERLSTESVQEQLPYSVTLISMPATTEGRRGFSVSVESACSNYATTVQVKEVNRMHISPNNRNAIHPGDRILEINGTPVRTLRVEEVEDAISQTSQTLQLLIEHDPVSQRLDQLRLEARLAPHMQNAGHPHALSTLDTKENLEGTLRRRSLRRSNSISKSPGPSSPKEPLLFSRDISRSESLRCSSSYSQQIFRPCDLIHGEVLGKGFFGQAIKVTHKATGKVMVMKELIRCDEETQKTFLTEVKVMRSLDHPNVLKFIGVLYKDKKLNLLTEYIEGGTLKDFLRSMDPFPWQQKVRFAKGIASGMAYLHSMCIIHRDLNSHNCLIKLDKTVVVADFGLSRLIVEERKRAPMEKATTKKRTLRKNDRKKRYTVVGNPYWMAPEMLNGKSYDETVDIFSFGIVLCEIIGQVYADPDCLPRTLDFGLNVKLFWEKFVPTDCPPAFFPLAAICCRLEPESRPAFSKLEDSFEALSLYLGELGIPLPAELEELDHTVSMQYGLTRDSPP
Epidermal growth factor receptor (Homo sapiens), P00533 [UNDEFINED MUTATION], sequence (P00533 whole entry, looked up, change not shown): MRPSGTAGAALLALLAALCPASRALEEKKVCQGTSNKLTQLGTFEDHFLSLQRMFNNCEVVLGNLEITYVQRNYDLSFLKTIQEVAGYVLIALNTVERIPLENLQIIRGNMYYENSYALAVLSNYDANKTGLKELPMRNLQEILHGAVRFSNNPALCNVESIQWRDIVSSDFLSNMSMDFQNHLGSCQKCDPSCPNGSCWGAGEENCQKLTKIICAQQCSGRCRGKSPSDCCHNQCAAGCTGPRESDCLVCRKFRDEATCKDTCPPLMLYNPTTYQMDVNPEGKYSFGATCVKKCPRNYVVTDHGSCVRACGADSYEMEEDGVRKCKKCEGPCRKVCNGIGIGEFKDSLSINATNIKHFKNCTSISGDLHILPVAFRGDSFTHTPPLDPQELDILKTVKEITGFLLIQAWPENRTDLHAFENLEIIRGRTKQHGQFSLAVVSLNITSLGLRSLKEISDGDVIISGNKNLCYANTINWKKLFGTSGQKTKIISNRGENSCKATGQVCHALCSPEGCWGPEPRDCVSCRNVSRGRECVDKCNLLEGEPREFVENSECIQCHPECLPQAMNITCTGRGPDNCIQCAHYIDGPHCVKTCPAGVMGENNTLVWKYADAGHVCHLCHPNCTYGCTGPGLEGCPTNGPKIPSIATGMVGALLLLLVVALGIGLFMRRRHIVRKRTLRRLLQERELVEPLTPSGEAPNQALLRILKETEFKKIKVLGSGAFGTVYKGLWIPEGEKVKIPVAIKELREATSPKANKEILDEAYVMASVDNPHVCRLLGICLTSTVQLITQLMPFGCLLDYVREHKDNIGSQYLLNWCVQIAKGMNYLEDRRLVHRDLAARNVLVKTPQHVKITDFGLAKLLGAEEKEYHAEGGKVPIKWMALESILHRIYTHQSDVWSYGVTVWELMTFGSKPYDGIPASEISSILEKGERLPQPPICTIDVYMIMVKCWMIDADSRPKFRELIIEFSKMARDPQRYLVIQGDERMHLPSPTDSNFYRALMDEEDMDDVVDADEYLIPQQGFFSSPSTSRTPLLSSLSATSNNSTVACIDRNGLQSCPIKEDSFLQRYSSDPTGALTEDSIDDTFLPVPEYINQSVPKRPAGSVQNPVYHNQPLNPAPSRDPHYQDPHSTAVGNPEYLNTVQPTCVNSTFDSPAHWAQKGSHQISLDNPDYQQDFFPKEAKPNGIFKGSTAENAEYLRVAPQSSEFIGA
Serine/threonine-protein kinase B-raf (Homo sapiens), P15056 [V600E], sequence (P15056 whole entry V600E): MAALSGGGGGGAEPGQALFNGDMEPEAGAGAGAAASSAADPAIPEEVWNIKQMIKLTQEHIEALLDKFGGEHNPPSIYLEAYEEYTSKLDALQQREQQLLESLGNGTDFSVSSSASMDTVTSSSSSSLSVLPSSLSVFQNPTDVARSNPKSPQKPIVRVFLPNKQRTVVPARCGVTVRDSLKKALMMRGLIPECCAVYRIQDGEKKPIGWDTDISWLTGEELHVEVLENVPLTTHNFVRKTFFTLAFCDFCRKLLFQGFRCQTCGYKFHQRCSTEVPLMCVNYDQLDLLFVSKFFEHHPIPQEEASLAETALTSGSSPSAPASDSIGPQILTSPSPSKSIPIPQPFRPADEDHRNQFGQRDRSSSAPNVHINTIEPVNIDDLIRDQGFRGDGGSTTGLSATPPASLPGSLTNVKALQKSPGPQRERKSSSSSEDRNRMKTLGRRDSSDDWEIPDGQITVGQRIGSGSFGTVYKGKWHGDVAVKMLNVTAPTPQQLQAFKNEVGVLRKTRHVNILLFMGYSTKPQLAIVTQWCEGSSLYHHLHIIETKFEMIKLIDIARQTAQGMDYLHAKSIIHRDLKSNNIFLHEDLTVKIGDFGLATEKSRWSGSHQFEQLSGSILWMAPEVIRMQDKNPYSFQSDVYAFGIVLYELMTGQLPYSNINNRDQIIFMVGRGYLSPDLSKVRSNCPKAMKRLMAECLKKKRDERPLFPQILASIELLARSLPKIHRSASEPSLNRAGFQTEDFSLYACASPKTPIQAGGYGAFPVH

C[C@@H]1CN(c2cc(-c3nn(C)c4ccc(OC5(C)CC5)cc34)ncn2)C[C@H](C)O1 [MLi-2-NC]
inactive: residual activity [1, 19] 100% | residual activity [2, 19] 100% | residual activity [3, 19] 87% | residual activity [4, 19] 91% | residual activity [5, 19] 100% | residual activity [6, 19] 72% | residual activity [7, 19] 86% | residual activity [8, 19] 75% | residual activity [9, 19] 83% | inhibition [10] -6.76% | residual activity [11, 19] 76% | residual activity [12, 19] 63% | residual activity [13, 19] 97% | residual activity [14, 19] 100% | residual activity [15, 19] 92% | residual activity [16, 19] 71% | inhibition [17] 18.1% | residual activity [18, 19] 88%

C[C@@H]1CN(c2cc(-c3n[nH]c4ccc(OC5(C)CC5)cc34)ncn2)C[C@H](C)O1 [MLi-2]
inactive: residual activity [1, 20] 70% | residual activity [2, 20] 98% | residual activity [3, 20] 69% | residual activity [4, 20] 89% | residual activity [5, 20] 73% | residual activity [6, 20] 85% | residual activity [7, 20] 100% | residual activity [8, 20] 96% | residual activity [9, 20] 100% | inhibition [10] -4.76% | residual activity [11, 20] 97% | residual activity [12, 20] 74% | residual activity [13, 20] 73% | residual activity [14, 20] 100% | residual activity [15, 20] 91% | residual activity [16, 20] 78% | inhibition [17] 4.44% | residual activity [18, 20] 89%
